Laboratory results published in patent US20240301494A1, “IDENTIFICATION AND TREATMENT OF PATIENTS WITH EPILEPSY” (GW Research Limited, priority 2020, published 2024).

Key:
Assay type in all cases: in vivo, human
[1] = tested on: patients with treatment-resistant epilepsy (TRE); assay: CBD response (percent change in seizure frequency) in open-label Expanded Access Program; settings: for Maintenance seizure frequency, Mean ± SD: per 28 days; for Percent change seizure frequency, Mean ± SD: vs baseline
Source text: (§1) All patients (or caregivers) were instructed to keep seizure diaries, which were verified during in-person visits. At each clinic visit, data on concomitant AEDs, CBD maintenance dose (mg/kg/day), seizure frequencies, and adverse events were collected.

[2] = tested on: patients with treatment-resistant epilepsy (TRE); assay: CBD tolerability: adverse events (MedDRA) in open-label Expanded Access Program
Protocol: as §1
Adverse effects were classified according to the Medical Dictionary for Regulatory Activities (MedDRA, V17.1), and those that differed by response status (diarrhoea, sedation, and abnormal liver function tests (LFTs)) were evaluated in the genetic analyses.

[3] = tested on: patients with treatment-resistant epilepsy (TRE); assay: Single-marker association of genetic variants (DMET plus array) with CBD response, logistic regression
Protocol: (§2) Baseline data collection included demographics, seizure frequencies/severity, concomitant AEDs, and laboratory data.
(§3) CLIA-certified genotyping on the Affymetrix Drug Metabolizing Enzymes and Transporters (DMET) plus array was performed through the Coriell Institute for Medical Research (Camden, NJ) in two batches, with nine samples re-genotyped due to low call rates. The DMET plus array interrogates 1,936 markers (1,931 variants and 5 copy number regions) across ˜230 drug-related genes. Affymetrix DMET Console software® (version 1.3) was used to generate genotype profiles. Of the 1,931 variants, 1,328 were removed due to location on the X-chromosome or a minor allele frequency <0.05.
Hardy-Weinberg equilibrium was evaluated, and variants p<0.0001 were further evaluated by race. Variants in linkage disequilibrium (LD) were removed (n=212; r2=0.5), leaving 396 variants in the analyses.
Relationships between variants and CBD response/tolerability were tested under dominant (AA vs Ab+bb) and recessive (AA+Ab vs bb) models using logistic regression in PLINK. Treatment group (adult vs paediatric), race, and sex were included as covariates in all analyses.
(§4) A permutation approach was used to account for multiple testing (number of permutations: 1,000), since other methods (e.g. Bonferroni correction) assume independence between markers and likely be overly conservative.

[4] = tested on: patients with treatment-resistant epilepsy (TRE); assay: Single-marker association of genetic variants (DMET plus array) with CBD-related adverse effects, logistic regression
Protocol: as §2
as §3, with “profiles.” for “profiles. Of the 1,931 variants, 1,328 were removed due to location on the X-chromosome or a minor allele frequency <0.05.”
Hardy-Weinberg equilibrium was evaluated, and variants p<0.0001 were further evaluated by race.
Treatment group (adult vs paediatric), race, and sex were included as covariates in all analyses.
as §4

[5] = tested on: patients with treatment-resistant epilepsy (TRE); assay: Multivariable model of CBD response in treatment-resistant epilepsy
Protocol: Receiver operator curves (ROC) were generated and the area under the curve (AUC) was evaluated to compare clinical, genetic, and combined clinical+genetic models. Epistasis was evaluated in PLINK to identify potential interactions among variants included in the final response model.

With C=C(C)[C@@H]1CCC(C)=C[C@H]1c1c(O)cc(CCCCC)cc1O [CBD, cannabidiol] the “Therapeutic response (≥50% reduction), share of patients” value ([1]; 112 genotyped TRE patients) was 56.3%, the “Maintenance seizure frequency, Median” value ([1]; Non-Responders (N = 49)) was 14.73 and the “Percent change seizure frequency, Median” value ([1]; Non-Responders (N = 49)) was −14.3%. For the same compound, the “Maintenance seizure frequency, Mean ± SD” value ([1]; Non-Responders (N = 49)) was 108.52 ± 327.05, the “Percent change seizure frequency, Mean ± SD” value ([1]; Non-Responders (N = 49)) was 5.65 ± 59.13% and the “Maintenance seizure frequency, Median” value ([1]; Overall (N = 112)) was 7.76. The “Percent change seizure frequency, Median” value ([1]; Overall (N = 112)) was −53.9%, the “Maintenance seizure frequency, Mean ± SD” value ([1]; Overall (N = 112)) was 58.54 ± 222.27 and the “Percent change seizure frequency, Mean ± SD” value ([1]; Overall (N = 112)) was −42.08 ± 58.76%. The “Maintenance seizure frequency, Median” value ([1]; Responders (N = 63)) was 4.50, the “Percent change seizure frequency, Median” value ([1]; Responders (N = 63)) was −82% and the “Maintenance seizure frequency, Mean ± SD” value ([1]; Responders (N = 63)) was 19.65 ± 46.09. For the same compound, the “Percent change seizure frequency, Mean ± SD” value ([1]; Responders (N = 63)) was −79.20 ± 16.58%, the “Therapeutic response (≥50% reduction), number of patients” value ([1]; of 112 patients) was 63 and the “Adverse event Abnormal liver function tests, %” value ([2]; Non-Responders (N = 49)) was “(4.1%)”. For the same compound, the “Adverse event Decreased appetite, %” value ([2]; Non-Responders (N = 49)) was “(6.1%)”, the “Adverse event Depressed mood, %” value ([2]; Non-Responders (N = 49)) was “(14.3%)” and the “Adverse event Diarrhoea, %” value ([2]; Non-Responders (N = 49)) was “(44.9%)”. The “Adverse event Nausea/vomiting, %” value ([2]; Non-Responders (N = 49)) was “(10.2%)”, the “Adverse event Sedation, %” value ([2]; Non-Responders (N = 49)) was “(44.9%)” and the “Weight Change: 10-20% Weight loss, %” value ([2]; Non-Responders (N = 49)) was “(24.5%)”. The “Weight Change: <10% Weight loss, %” value ([2]; Non-Responders (N = 49)) was “(53.1%)”, the “Weight Change: >20% Weight loss, %” value ([2]; Non-Responders (N = 49)) was “(6.1%)” and the “Weight Change: No Change or increase, %” value ([2]; Non-Responders (N = 49)) was “(16.3%)”. For the same compound, the “Adverse event Abnormal liver function tests, %” value ([2]; Overall (N = 112)) was “(10.7%)”, the “Adverse event Decreased appetite, %” value ([2]; Overall (N = 112)) was “(10.7%)” and the “Adverse event Depressed mood, %” value ([2]; Overall (N = 112)) was “(10.7%)”. The “Adverse event Diarrhoea, %” value ([2]; Overall (N = 112)) was “(58.9%)”, the “Adverse event Nausea/vomiting, %” value ([2]; Overall (N = 112)) was “(12.5%)” and the “Adverse event Sedation, %” value ([2]; Overall (N = 112)) was “(34.8%)”. For the same compound, the “Weight Change: 10-20% Weight loss, %” value ([2]; Overall (N = 112)) was “(20.5%)”, the “Weight Change: <10% Weight loss, %” value ([2]; Overall (N = 112)) was “(51.8%)” and the “Weight Change: >20% Weight loss, %” value ([2]; Overall (N = 112)) was “(8.0%)”. For the same compound, the “Weight Change: No Change or increase, %” value ([2]; Overall (N = 112)) was “(19.6%)”, the “Adverse event Abnormal liver function tests, %” value ([2]; Responders (N = 63)) was “(15.9%)” and the “Adverse event Decreased appetite, %” value ([2]; Responders (N = 63)) was “(14.3%)”. The “Adverse event Depressed mood, %” value ([2]; Responders (N = 63)) was “(7.9%)”, the “Adverse event Diarrhoea, %” value ([2]; Responders (N = 63)) was “(69.8%)” and the “Adverse event Nausea/vomiting, %” value ([2]; Responders (N = 63)) was “(14.3%)”. The “Adverse event Sedation, %” value ([2]; Responders (N = 63)) was “(27.0%)”, the “Weight Change: 10-20% Weight loss, %” value ([2]; Responders (N = 63)) was “(17.5%)” and the “Weight Change: <10% Weight loss, %” value ([2]; Responders (N = 63)) was “(50.8%)”. The “Weight Change: >20% Weight loss, %” value ([2]; Responders (N = 63)) was “(9.5%)”, the “Weight Change: No Change or increase, %” value ([2]; Responders (N = 63)) was “(22.2%)” and the “increased likelihood of response” value ([3]; AOX1 rs6729738, recessive) was 6 fold. The “increased odds of response” value ([3]; CHST11 rs903247) was 4 fold, the “decreased likelihood of response” value ([3]; GSTM5 rs2479390) was 72% and the “decreased likelihood of response” value ([3]; GSTP1 rs1695 (recessive)) was 87%. The “increased likelihood of response” value ([3]; SULT1A2 rs1059491 (recessive)) was 17 fold, the “increased odds of response” value ([3]; UGT2B4 rs1966151) was 4 fold and the “association of variant with CBD-associated sedation” value ([4]; ABCB1 rs1045642) was “decreased sedation”. The “increased likelihood of abnormal LFTs” value ([4]; APOA2 rs5085, recessive) was 6 fold, the “association of variant with CBD-associated sedation” value ([4]; COMT rs4680 recessive wild-type G alleles) was “decreased sedation” and the “increased likelihood of diarrhoea” value ([4]; CYP2A6 rs28399433) was 10 fold. For the same compound, the “association of variant with CBD-associated sedation” value ([4]; CYP2C19 rs3758581) was “decreased sedation”, the “increased likelihood of diarrhoea” value ([4]; CYP39A1 rs7761731) was about 9 fold and the “increased likelihood of diarrhoea” value ([4]; FMO6 rs2272797) was about 5 fold. The “increased odds of abnormal LFTs” value ([4]; SLC22A2 rs316003, recessive) was about 11 fold, the “increased odds of abnormal LFTs” value ([4]; SLC22A5 rs274548, recessive) was about 15 fold and the “increased odds of abnormal LFTs” value ([4]; SLC22A11 rs1783811, recessive) was about 6 fold. The “association of variant with CBD-associated sedation” value ([4]; TPMT rs2842934) was “decreased sedation”, the “association of variant with CBD-associated sedation” value ([4]; UGT2A1 rs4148304 missense variant) was “decreased odds of sedation” and the “association of variant with CBD-associated diarrhoea” value ([4]; UGT2A1 rs11249454 intron variant) was “decreased odds of diarrhoea”. The “OR of CBD response, multivariable model” value ([5]; ABP1 (AOC1) rs12539) was 5.67, the “OR of CBD response, multivariable model” value ([5]; CHST11 rs903247) was 5.03 and the “OR of CBD response, multivariable model” value ([5]; DPYD rs1801265) was 4.50. For the same compound, the “OR of CBD response, multivariable model” value ([5]; FMO2 rs7515157 (recessive)) was 0.06, the “OR of CBD response, multivariable model” value ([5]; GSTM5 rs2479390) was 0.15 and the “OR of CBD response, multivariable model” value ([5]; GSTP1 rs1695 (recessive)) was 0.03. The “OR of CBD response, multivariable model” value ([5]; SLC7A7 rs1061040) was 5.04, the “OR of CBD response, multivariable model” value ([5]; UGT2B4 rs1966151) was 5.02 and the “OR of CBD response, multivariable model” value ([5]; predictor: CBD dose (mg/kg/day)) was 1.07.
